Tests used:
[1] = GPCRScan assay: inhibition of GABA/PBR; set-up: species or system Rattus norvegicus; radioligand conc. used [nm] 0.3 – 2.0, parental cells brain tissue
[2] = target: 5-hydroxytryptamine receptor 1E (Homo sapiens) (UniProt P28566); settings: Compound concentration 10.0 uM
[3] = target: T1, D(4) dopamine receptor (Homo sapiens) (UniProt P21917); assay: Inhibition of Dopamine D4.2 at 10 µM in the Eurofins-Panlabs radioligand binding assay (Eurofins_assay_219900); set-up: ligand concentration 0.5 nM; settings: Compound concentration 10.0 uM
T1 sequence (whole entry): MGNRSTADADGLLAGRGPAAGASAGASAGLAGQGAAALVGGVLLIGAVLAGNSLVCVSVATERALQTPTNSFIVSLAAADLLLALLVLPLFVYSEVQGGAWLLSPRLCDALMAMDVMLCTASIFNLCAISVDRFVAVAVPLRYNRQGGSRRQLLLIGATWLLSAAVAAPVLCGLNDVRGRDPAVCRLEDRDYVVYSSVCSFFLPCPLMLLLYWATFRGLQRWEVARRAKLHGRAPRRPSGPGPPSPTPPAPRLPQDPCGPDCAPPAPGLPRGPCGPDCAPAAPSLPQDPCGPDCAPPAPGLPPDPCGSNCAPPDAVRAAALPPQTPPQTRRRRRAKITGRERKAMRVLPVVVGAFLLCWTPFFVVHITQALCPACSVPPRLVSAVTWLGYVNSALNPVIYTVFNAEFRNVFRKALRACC

[4] = target: Gamma-aminobutyric acid type B receptor subunit 1 (Homo sapiens) (UniProt Q9UBS5); assay: Inhibition of GABAB1A at compound concentration of 10.0 uM in the Eurofins-Panlabs radioligand binding assay (Eurofins_assay_228610); set-up: ligand concentration 4 nM; settings: Compound concentration 10.0 uM
[5] = target: Melatonin receptor type 1A (Homo sapiens) (UniProt P48039); assay: Inhibition of Melatonin MT1 at 10 µM in the Eurofins-Panlabs radioligand binding assay (Eurofins_assay_251600); set-up: ligand concentration 0.05 nM; settings: Compound concentration 10.0 uM
Mus musculus = organism: Mus musculus; assay: Inhibition of Phorbol Ester at 10 µM in the Eurofins-Panlabs radioligand binding assay (Eurofins_assay_264500); set-up: ligand concentration 3 nM; settings: Compound concentration 10.0 uM
[6] = target: ATP-sensitive inward rectifier potassium channel 11 (Cricetulus griseus) (UniProt A0A3L7HHE1); assay: Inhibition of Potassium Channel [KATP] at 10 µM in the Eurofins-Panlabs radioligand binding assay (Eurofins_assay_265600); settings: Cricetinae; Compound concentration 10.0 uM
[7] = target: Prostaglandin E2 receptor EP4 subtype (Homo sapiens) (UniProt P35408); assay: Inhibition of Prostanoid EP4 at 10 µM in the Eurofins-Panlabs radioligand binding assay (Eurofins_assay_268420); set-up: ligand concentration 1 nM; settings: Compound concentration 10.0 uM
[8] = target: Sigma non-opioid intracellular receptor 1 (Homo sapiens) (UniProt Q99720); assay: Inhibition of Sigma 1 at 10 µM in the Eurofins-Panlabs radioligand binding assay (Eurofins_assay_278110); set-up: ligand concentration 8 nM; settings: Compound concentration 10.0 uM
[9] = target: Substance-P receptor (Homo sapiens) (UniProt P25103); assay: Inhibition of Tachykinin NK1 at 10 µM in the Eurofins-Panlabs radioligand binding assay (Eurofins_assay_255520); set-up: ligand concentration 0.8 nM; settings: Compound concentration 10.0 uM
Rattus norvegicus = organism: Rattus norvegicus; assay: Inhibition of Thyroid Hormone at 10 µM in the Eurofins-Panlabs radioligand binding assay (Eurofins_assay_285900); assay type: protein assay; settings: Compound concentration 10.0 uM
[10] = target: Sodium-dependent dopamine transporter (Homo sapiens) (UniProt Q01959); settings: Compound concentration 10.0 uM
[11] = target: Beta-2 adrenergic receptor (Homo sapiens) (UniProt P07550); settings: Compound concentration 10.0 uM
[12] = target: T2, Alpha-2A adrenergic receptor (Homo sapiens) (UniProt P08913); settings: Compound concentration 10.0 uM
T2 sequence (whole entry): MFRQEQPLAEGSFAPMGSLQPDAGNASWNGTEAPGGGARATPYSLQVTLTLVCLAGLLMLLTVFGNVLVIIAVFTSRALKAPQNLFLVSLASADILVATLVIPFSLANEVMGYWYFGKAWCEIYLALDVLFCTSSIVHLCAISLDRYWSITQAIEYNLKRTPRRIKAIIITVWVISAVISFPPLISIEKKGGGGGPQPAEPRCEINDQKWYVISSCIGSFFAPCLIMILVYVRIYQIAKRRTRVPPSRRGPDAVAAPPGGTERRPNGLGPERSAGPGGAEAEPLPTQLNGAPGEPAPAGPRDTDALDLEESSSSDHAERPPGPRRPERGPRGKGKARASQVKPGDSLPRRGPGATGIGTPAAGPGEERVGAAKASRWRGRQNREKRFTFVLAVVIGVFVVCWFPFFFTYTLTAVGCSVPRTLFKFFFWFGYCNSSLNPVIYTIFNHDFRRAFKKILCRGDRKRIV

[13] = target: Beta-2 adrenergic receptor (Homo sapiens) (UniProt P07550); settings: Compound concentration 10.0 uM; remark: listed apart in the source
[14] = target: Cannabinoid receptor 1 (Homo sapiens) (UniProt P21554); settings: Compound concentration 10.0 uM
[15] = target: D(1A) dopamine receptor (Homo sapiens) (UniProt P21728); settings: Compound concentration 10.0 uM
[16] = target: Endothelin receptor type B (Homo sapiens) (UniProt P24530); settings: Compound concentration 10.0 uM
[17] = target: GABA-A receptor; anion channel (Rattus norvegicus) (UniProt O09028+P15431+P18506+P18508+P19969+P20236+P23574+P23576+P28471+P28473+P30191+P62813+P63079+P63138+Q91ZM7+Q9ES14); settings: Compound concentration 10.0 uM
[18] = target: Kappa-type opioid receptor (Homo sapiens) (UniProt P41145); settings: Compound concentration 10.0 uM
[19] = target: Mu-type opioid receptor (Homo sapiens) (UniProt P35372); settings: Compound concentration 10.0 uM
[20] = target: Purinergic P2Y (Rattus norvegicus) (UniProt O35811+Q9EPX4+P49651+Q63371+P41232+O35881+Q6GUG4); settings: Compound concentration 10.0 uM
[21] = target: Sodium-dependent dopamine transporter (Homo sapiens) (UniProt Q01959)
[22] = target: Sodium-dependent serotonin transporter (Homo sapiens) (UniProt P31645); settings: Compound concentration 10.0 uM
Chain of Sodium-dependent serotonin transporter (Homo sapiens) (P31645 whole entry, looked up): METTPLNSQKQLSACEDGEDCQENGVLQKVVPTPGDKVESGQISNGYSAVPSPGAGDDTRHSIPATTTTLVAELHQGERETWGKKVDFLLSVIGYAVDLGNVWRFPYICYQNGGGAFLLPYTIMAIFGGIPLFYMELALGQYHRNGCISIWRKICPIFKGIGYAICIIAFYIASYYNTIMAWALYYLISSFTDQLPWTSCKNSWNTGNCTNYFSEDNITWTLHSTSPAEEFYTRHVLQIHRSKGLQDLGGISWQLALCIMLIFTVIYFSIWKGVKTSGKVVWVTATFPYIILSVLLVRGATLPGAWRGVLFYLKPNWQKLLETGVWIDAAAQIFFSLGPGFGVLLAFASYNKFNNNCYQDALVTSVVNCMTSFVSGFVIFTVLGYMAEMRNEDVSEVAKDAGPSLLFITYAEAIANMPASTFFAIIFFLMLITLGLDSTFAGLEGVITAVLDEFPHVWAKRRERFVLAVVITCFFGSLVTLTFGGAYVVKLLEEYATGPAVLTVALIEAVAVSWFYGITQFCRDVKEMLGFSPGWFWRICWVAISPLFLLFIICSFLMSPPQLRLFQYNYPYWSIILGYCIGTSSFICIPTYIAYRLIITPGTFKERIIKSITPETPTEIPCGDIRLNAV

Chain of Sodium-dependent dopamine transporter (Homo sapiens) (Q01959 whole entry): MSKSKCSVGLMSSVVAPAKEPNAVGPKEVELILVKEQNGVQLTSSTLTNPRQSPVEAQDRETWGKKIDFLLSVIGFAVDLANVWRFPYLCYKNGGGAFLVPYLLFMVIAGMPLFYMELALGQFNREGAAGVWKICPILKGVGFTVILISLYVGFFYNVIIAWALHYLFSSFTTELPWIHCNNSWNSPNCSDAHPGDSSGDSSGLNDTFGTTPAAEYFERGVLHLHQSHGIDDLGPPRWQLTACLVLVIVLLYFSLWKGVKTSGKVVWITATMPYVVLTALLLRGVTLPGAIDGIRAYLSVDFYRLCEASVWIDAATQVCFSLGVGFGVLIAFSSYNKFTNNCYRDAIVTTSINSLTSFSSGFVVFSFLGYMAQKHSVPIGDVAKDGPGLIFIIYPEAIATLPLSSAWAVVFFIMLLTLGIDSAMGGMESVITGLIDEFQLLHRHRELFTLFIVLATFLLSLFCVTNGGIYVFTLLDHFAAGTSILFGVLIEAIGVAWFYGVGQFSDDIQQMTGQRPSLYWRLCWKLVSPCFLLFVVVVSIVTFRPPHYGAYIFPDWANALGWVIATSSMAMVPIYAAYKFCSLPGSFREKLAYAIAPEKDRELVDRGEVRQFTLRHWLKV
Chain of Beta-2 adrenergic receptor (Homo sapiens) (P07550 whole entry, looked up): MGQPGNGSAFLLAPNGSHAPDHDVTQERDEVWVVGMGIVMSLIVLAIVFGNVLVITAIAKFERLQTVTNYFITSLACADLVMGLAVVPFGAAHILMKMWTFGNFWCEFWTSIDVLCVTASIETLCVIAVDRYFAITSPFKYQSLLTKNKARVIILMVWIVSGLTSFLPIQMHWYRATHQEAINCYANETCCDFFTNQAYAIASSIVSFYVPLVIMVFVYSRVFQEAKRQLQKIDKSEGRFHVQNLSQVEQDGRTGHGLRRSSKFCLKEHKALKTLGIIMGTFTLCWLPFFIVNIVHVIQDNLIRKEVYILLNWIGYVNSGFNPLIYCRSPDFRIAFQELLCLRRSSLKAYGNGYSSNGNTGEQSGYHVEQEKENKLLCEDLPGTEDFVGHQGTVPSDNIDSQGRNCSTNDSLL
Chain of Endothelin receptor type B (Homo sapiens) (P24530 whole entry): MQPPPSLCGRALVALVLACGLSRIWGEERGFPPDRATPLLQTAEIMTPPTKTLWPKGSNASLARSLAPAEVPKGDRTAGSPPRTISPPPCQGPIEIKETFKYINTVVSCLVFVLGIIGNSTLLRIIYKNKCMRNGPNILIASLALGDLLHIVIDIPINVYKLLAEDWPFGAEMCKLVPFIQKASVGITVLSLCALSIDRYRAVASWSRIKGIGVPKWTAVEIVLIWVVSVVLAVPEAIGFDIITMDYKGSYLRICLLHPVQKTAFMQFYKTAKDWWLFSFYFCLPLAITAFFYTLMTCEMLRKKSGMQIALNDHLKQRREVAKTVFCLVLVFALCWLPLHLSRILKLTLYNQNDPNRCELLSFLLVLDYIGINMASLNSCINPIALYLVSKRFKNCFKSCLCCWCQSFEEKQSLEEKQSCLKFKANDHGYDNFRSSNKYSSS
Chain of 5-hydroxytryptamine receptor 1E (Homo sapiens) (P28566 whole entry): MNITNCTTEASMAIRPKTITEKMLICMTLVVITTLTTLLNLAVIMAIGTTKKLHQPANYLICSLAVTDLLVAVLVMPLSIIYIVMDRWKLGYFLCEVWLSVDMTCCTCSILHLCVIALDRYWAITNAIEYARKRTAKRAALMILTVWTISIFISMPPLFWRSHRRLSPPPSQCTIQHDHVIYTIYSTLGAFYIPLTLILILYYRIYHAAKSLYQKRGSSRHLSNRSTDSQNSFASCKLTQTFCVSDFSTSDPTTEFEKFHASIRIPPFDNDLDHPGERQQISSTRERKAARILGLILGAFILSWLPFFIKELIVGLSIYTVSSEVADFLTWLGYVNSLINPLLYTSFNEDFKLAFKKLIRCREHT
Chain of Gamma-aminobutyric acid type B receptor subunit 1 (Homo sapiens) (Q9UBS5 whole entry): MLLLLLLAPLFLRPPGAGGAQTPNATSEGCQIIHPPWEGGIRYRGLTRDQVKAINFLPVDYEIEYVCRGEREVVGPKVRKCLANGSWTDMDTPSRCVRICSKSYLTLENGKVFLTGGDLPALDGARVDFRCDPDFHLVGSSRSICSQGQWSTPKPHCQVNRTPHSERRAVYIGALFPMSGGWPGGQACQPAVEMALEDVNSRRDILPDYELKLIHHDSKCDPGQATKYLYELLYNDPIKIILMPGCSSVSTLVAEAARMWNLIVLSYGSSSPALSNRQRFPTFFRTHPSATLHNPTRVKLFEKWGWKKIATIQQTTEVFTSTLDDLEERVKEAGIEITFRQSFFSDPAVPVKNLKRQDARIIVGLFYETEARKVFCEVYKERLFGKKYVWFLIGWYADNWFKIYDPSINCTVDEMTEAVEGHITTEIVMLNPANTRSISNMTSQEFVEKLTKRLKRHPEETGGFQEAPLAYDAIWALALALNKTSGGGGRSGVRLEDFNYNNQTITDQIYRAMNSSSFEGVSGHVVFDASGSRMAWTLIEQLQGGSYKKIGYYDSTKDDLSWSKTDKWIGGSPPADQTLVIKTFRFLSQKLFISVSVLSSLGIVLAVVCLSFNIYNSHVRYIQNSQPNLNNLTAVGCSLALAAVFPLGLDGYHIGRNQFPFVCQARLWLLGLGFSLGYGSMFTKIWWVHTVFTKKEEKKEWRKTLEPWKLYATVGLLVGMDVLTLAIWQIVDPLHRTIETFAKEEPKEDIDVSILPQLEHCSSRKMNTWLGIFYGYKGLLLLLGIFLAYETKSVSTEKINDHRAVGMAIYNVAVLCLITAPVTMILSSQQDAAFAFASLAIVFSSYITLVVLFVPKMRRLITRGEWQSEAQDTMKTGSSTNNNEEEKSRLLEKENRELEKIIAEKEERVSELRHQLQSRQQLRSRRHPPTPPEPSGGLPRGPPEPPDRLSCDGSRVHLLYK
Chain of Sigma non-opioid intracellular receptor 1 (Homo sapiens) (Q99720 whole entry): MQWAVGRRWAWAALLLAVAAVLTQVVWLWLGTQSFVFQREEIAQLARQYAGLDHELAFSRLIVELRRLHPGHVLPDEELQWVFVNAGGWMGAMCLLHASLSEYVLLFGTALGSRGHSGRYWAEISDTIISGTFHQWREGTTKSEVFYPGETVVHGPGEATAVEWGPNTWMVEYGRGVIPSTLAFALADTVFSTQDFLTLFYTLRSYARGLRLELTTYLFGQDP
Chain of Mu-type opioid receptor (Homo sapiens) (P35372 whole entry): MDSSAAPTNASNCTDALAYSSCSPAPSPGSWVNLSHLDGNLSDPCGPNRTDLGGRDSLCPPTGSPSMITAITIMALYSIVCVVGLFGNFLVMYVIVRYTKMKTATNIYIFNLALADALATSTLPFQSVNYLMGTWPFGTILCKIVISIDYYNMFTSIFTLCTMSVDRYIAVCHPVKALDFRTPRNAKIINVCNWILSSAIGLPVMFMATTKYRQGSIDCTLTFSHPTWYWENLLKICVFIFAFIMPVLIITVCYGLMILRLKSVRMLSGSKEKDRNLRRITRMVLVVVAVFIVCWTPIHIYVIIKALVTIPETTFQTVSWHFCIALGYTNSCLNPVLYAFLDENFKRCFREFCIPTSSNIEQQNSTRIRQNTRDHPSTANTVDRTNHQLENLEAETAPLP
Chain of Substance-P receptor (Homo sapiens) (P25103 whole entry): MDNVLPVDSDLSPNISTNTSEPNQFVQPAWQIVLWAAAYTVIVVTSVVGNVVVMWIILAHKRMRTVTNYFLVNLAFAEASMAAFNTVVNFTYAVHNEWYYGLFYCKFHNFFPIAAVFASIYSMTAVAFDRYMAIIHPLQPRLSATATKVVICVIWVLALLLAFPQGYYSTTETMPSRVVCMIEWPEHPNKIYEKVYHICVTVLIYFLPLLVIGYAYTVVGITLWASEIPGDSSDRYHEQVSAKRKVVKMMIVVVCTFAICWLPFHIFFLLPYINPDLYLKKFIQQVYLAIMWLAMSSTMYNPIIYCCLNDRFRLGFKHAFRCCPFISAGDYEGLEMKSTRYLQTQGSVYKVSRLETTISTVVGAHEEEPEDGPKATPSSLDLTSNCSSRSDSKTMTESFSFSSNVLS
Chain of D(1A) dopamine receptor (Homo sapiens) (P21728 whole entry): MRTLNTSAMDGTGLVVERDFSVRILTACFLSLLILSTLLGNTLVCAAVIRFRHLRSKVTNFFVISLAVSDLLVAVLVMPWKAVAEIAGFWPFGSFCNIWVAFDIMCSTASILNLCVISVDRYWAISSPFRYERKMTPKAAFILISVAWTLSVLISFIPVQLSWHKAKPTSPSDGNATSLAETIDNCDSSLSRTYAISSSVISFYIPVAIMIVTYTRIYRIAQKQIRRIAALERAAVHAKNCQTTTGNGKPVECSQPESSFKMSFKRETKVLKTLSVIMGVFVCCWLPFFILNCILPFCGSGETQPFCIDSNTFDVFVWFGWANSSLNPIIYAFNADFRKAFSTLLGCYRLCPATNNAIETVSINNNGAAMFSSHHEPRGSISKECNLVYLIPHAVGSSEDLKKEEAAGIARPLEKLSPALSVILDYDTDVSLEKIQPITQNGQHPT

Question: Which results are given for `NS(=O)(=O)c1cc(NC(=O)C2(c3ccccc3Cl)CC2)ccc1Oc1cccc(Cl)c1` [BAY-207]?
Answer: Ki [1]: 250 nM; pKi [1]: 6.62; inhibition [2]: -1.46%

Question: For `NS(=O)(=O)c1cc(NC(=O)Cc2ccccc2)ccc1Oc1cccc(Cl)c1` [BAY-1797], which inhibition [3] is on record?
Answer: 4%

Question: And the inhibition [4]?
Answer: 14%

Question: What about the inhibition [5] of the same molecule?
Answer: 13%

Question: And the inhibition (Mus musculus)?
Answer: 4%

Question: What about the inhibition [6] of the same molecule?
Answer: -9%

Question: And the inhibition [7]?
Answer: 21%

Question: And the inhibition [8]?
Answer: 3%

Question: What about the inhibition [9] of the same molecule?
Answer: 4%

Question: And the inhibition (Rattus norvegicus)?
Answer: 2%

Question: And the inhibition [10]?
Answer: 37%

Question: And the inhibition [11]?
Answer: 18.9%

Question: What about the inhibition [12] of the same molecule?
Answer: 26%

Question: And the inhibition [13]?
Answer: 2%

Question: What about the inhibition [14] of the same molecule?
Answer: 44%

Question: What about the inhibition [15] of the same molecule?
Answer: 11%

Question: And the inhibition [16]?
Answer: -1%

Question: What about the inhibition [17] of the same molecule?
Answer: 0%

Question: And the inhibition [18]?
Answer: 10%

Question: And the inhibition [19]?
Answer: 9%

Question: What about the inhibition [20] of the same molecule?
Answer: 14%

Question: What about the inhibition ([21]; Compound concentration 3.0 uM) of the same molecule?
Answer: 60%

Question: What about the inhibition ([21]; Compound concentration 10.0 uM) of the same molecule?
Answer: 81%

Question: And the inhibition [22]?
Answer: 4%
